Legend:
OCT1 = assay: MTT reduction cell viability assay, OCT1-transfected HEK-293 cells; type: cell-based; conditions: human, HEK-293 cells transfected with OCT1; 48 h exposure; read-out: EC50 (95% confidence interval), cell viability
[1] = test system: HEK-293 cells expressing EMT; assay: MTT reduction cell viability assay, EMT-transfected HEK-293 cells; type: cell-based; conditions: Homo sapiens, HEK293; 48 h exposure; read-out: EC50 (95% confidence interval), cell viability
OCT2 mutant 400C variant = assay: MTT reduction cell viability assay, HEK-293 cells expressing OCT2 mutant 400C variant; type: cell-based; conditions: human, 48 h exposure after 12 h incubation with cyclo(his-pro) 10 µmol/l, read-out: EC50 (95% confidence interval), cell viability
[2] = weak bases; cited from earlier work
OCT2 = biological target: T1, OCT2 (Homo sapiens, UniProt O15244, S270A); assay: Substrate search: uptake from fetal bovine serum into OCT2-transfected vs control HEK-293 cells, ESI-LC-MS-MS; conditions: 30 min incubation with 100% fetal bovine serum, OCT2 vs HEK-293 cells without OCT2
T1 sequence (O15244 1-555 S270A): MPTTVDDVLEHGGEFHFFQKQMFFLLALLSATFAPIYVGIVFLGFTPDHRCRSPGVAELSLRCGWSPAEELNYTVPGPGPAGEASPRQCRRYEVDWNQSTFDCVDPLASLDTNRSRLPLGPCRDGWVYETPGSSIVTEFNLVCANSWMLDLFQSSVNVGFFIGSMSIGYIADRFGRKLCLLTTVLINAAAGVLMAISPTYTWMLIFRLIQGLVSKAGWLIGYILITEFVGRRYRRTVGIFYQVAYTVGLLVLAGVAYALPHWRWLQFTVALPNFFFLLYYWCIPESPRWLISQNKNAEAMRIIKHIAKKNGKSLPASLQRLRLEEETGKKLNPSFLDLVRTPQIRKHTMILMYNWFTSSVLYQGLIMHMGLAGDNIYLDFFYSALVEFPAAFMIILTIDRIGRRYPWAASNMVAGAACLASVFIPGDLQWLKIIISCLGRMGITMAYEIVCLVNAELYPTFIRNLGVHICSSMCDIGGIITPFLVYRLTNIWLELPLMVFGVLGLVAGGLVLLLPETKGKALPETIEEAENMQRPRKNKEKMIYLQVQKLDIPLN
Method: Uptake experiments were conducted in OCT2-transfected human embryonic kidney cells (HEK-293) by incubation with fetal bovine serum. Specific OCT2-mediated uptake of a compound from serum was assessed in comparison to HEK-293 cells without OCT2 expression by running positive electrospray ionization tandem mass spectrometry analysis (ESI-LC-MS-MS).
After termination of uptake by washing with ice-cold HEPES-Krebs buffer and protein precipitation with 4 mmol/l perchloric acid or 100% acetonitrile in the case of brain homogenates, lysates were analyzed by LC-MS-MS operating in product scan positive electrospray ionisation mode (ESI) on a TSQ Quantum triple-quadrupole tandem mass spectrometer equipped with a thermostated (5°C) Surveyor autosampler and a thermostated (30°C) Surveyor HPLC system (Thermo Electron). Spray voltage was set at 4500 V, and capillary temperature was kept at 350°C. Nitrogen sheath gas and auxiliary gas pressure were 40 and 4 psi respectively. The collision gas was argon and collision-induced dissociation (CID) took place at 1.5 mTorr and 25 eV. […] 1-Methyl-4-phenyl-pyridinium iodide (MPP^+, 500 ng/ml) was applied as internal standard (IS) and the m/z 170→128 transition was simultaneously recorded by single reaction monitoring (SRM) at 36 eV collision energy. […]

specific uptake from serum, fold above the control (OCT2) [fold] | Compound | EC50 at 48 h (OCT1) [µM] | EC50 [1] [µM] | EC50 at 48 h (OCT2 mutant 400C variant) [µM] | pKS [2]
 | CC1NCCc2cc(O)c(O)cc21 (centres unmarked) [salsolinol] | 627 | 998 | 406 | 
> 2 | O=C1NC(Cc2c[nH]cn2)C(=O)N2CCCC12 (centres unmarked) [cyclo(his-pro), histidyl-proline diketopiperazine] |  |  |  | 6.5–7.5

From article PMC1851987, “Identification of the Endogenous Key Substrates of the Human Organic Cation Transporter OCT2 and Their Implication in Function of Dopaminergic Neurons” (PLoS ONE, 2007)
